In article PMC6237183 (Nature structural & molecular biology, 2018):
“And” between values parts separate entries of the source, which are not always exact repeats. Equal values may be shown once. “Also recorded” adds a separate entry of the source. Read-outs that look alike come from different tables or passages of the source.

Experiments:
5-HT2BR WT = 5-HT2BR WT (Homo sapiens, UniProt P41595); test: β-Arrestin2 recruitment Tango assay
5-HT2BR wild-type = 5-HT2BR wild-type (Homo sapiens, UniProt P41595); test: Gq-mediated calcium flux FLIPR assay; conditions: for Gq calcium flux Emax: normalized to percent 5-HT stimulation; for EC50: agonist mode, N=3
5-HT2BR L362F^7.35 [1] = biological target: T1, 5-HT2BR L362F^7.35 (Homo sapiens, UniProt P41595, L362F); test: Gq-mediated calcium flux FLIPR assay; conditions: L362F^7.35 mutant
5-HT2BR [2] = biological target: T2, 5-HT2BR (Homo sapiens, UniProt P41595); test: Phosphoinositide; type: cell-based
5-HT2BR [3] = biological target: T2, 5-HT2BR; test: BRET β-arrestin2 recruitment assay
5-HT2BR T140V^3.37 [4] = biological target: T3, 5-HT2BR T140V^3.37 (Homo sapiens, UniProt P41595, T140V); conditions: T140V^3.37 mutant, relative to wild-type
5-HT2BR A225G^5.46 [5] = biological target: T4, 5-HT2BR A225G^5.46 (Homo sapiens, UniProt P41595, A225G); test: Gq-mediated calcium flux FLIPR assay; conditions: for Emax: read-out: Gq calcium flux Emax
5-HT2BR L362F^7.35 [6] = biological target: T1, 5-HT2BR L362F^7.35; test: [3H]-LSD dissociation radioligand binding assay; conditions: L362F^7.35 vs WT
5-HT2BR L362F^7.35 [7] = biological target: T1, 5-HT2BR L362F^7.35; test: BRET β-arrestin2 recruitment assay; conditions: L362F^7.35 mutant
5-HT2BR L362A^7.35 = 5-HT2BR L362A^7.35 (Homo sapiens, UniProt P41595, L362A); test: Gq-mediated calcium flux FLIPR assay; conditions: L362A^7.35 mutant, % 5-HT
5-HT2BR L362F^7.35 [8] = biological target: T1, 5-HT2BR L362F^7.35; conditions: L362F^7.35 mutant
5-HT2BR T140A^3.37 [9] = biological target: T5, 5-HT2BR T140A^3.37 (Homo sapiens, UniProt P41595, T140A); conditions: T140A^3.37 mutant, relative to wild-type
5-HT2BR T140A^3.37 [10] = biological target: T5, 5-HT2BR T140A^3.37; test: β-Arrestin2 recruitment Tango assay; conditions: T140A^3.37 mutant
5-HT2BR T140A^3.37 [11] = biological target: T5, 5-HT2BR T140A^3.37; test: [3H]-LSD competitive radioligand binding; conditions: T140A^3.37 mutant, relative to wild-type
5-HT2BR A225G^5.46 [12] = biological target: T4, 5-HT2BR A225G^5.46; test: [3H]-LSD competitive radioligand binding; conditions: A225G^5.46 mutant, relative to wild-type
5-HT2BR T140S^3.37 [13] = biological target: T6, 5-HT2BR T140S^3.37 (Homo sapiens, UniProt P41595, T140S); test: Gq-mediated calcium flux FLIPR assay
5-HT2BR T140V^3.37 [14] = biological target: T3, 5-HT2BR T140V^3.37; test: [3H]-LSD competitive radioligand binding; conditions: T140V^3.37 mutant, relative to wild-type
5-HT2BR T140S^3.37 [15] = biological target: T6, 5-HT2BR T140S^3.37; test: [3H]-LSD competitive radioligand binding; conditions: T140S^3.37 mutant, relative to wild-type
5-HT2BR A225S^5.46 [16] = biological target: T7, 5-HT2BR A225S^5.46 (Homo sapiens, UniProt P41595, A225S); test: [3H]-LSD competitive radioligand binding; conditions: A225S^5.46 mutant, relative to wild-type
5-HT2BR A225S^5.46 [17] = biological target: T7, 5-HT2BR A225S^5.46; test: Gq-mediated calcium flux FLIPR assay
[18] = read-out: Gq calcium flux EC50, 5-HT2BR wild-type

T5 sequence (P41595 whole entry T140A): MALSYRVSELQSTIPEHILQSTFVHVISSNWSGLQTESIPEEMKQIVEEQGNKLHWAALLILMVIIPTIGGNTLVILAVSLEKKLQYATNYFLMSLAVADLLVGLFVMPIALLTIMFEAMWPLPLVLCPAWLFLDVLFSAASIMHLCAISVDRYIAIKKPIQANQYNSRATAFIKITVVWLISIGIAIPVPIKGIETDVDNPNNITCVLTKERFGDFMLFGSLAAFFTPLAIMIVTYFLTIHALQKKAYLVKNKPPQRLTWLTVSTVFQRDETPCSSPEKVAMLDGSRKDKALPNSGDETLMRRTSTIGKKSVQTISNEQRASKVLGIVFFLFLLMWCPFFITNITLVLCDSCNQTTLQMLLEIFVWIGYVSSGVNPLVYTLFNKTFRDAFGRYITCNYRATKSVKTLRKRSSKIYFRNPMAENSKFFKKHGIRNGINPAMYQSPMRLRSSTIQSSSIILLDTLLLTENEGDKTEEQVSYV
T4 sequence (P41595 whole entry A225G): as the sequence (P41595 whole entry T140A) above, with A140T, A225G counted along it
T7 sequence (P41595 whole entry A225S): as the sequence (P41595 whole entry T140A) above, with A140T, A225S counted along it
T3 sequence (P41595 whole entry T140V): as the sequence (P41595 whole entry T140A) above, with A140V counted along it
T6 sequence (P41595 whole entry T140S): as the sequence (P41595 whole entry T140A) above, with A140S counted along it
T1 sequence (P41595 whole entry L362F): as the sequence (P41595 whole entry T140A) above, with A140T, L362F counted along it
T2 sequence (P41595 whole entry): as the sequence (P41595 whole entry T140A) above, with A140T counted along it
5-HT2BR wild-type, sequence (P41595 whole entry): as the sequence (P41595 whole entry T140A) above, with A140T counted along it
5-HT2BR WT, sequence (P41595 whole entry): as the sequence (P41595 whole entry T140A) above, with A140T counted along it
5-HT2BR L362A^7.35, sequence (P41595 whole entry L362A): as the sequence (P41595 whole entry T140A) above, with A140T, L362A counted along it

COc1ccc(CC2NCCc3c2[nH]c2ccc(C)cc32)c(Cl)c1OC (centres unmarked) [LY266097]
β-arrestin2 recruitment activity (5-HT2BR WT; 5-HT2BR WT): without detectable β-arrestin2 activity; also recorded: no β-arrestin2 recruitment activity
Gq calcium flux agonist activity (5-HT2BR wild-type; 5-HT2BR wild-type): modest Gq partial agonism
Gq calcium flux Emax (5-HT2BR wild-type; 5-HT2BR wild-type): 62% and 54%
EC50 (5-HT2BR wild-type; [18]): 37 nM and 41 nM
Gq agonist activity (5-HT2BR L362F^7.35 [1]): abolished
Gq function via PI hydrolysis (5-HT2BR [2]): Gq partial agonism
β-arrestin2 antagonism by BRET (5-HT2BR [3]): potent β-arrestin2 antagonism
β-arrestin2 recruitment by BRET (5-HT2BR [3]; real-time, across specific time points): At no tested time point did LY266097 display β-arrestin2 recruitment

CC[C@@H](CO)NC(=O)[C@@H]1C=C2c3cccc4c3c(cn4C)C[C@H]2N(C)C1 [methysergide]
Gq calcium flux agonist activity (5-HT2BR wild-type; 5-HT2BR wild-type): lack of agonist activity
Gq calcium flux agonism (5-HT2BR T140V^3.37 [4]): failed to demonstrate any measureable Gq agonist activity
Emax (5-HT2BR A225G^5.46 [5]): 54%

CN1C[C@H](C(=O)N[C@]2(C)O[C@@]3(O)[C@@H]4CCCN4C(=O)[C@H](Cc4ccccc4)N3C2=O)C=C2c3cccc4[nH]cc(c34)C[C@H]21 [ERG, ergotamine]
Gq calcium flux agonist activity (5-HT2BR wild-type; 5-HT2BR wild-type): Gq partial agonists

CCN(CC)C(=O)[C@@H]1C=C2c3cccc4[nH]cc(c34)C[C@H]2N(C)C1 [LSD, lysergic acid diethylamide]
faster dissociation rate compared to 5-HT2BR WT (5-HT2BR L362F^7.35 [6]): greater than 10 fold
time-dependent recruitment of β-arrestin (5-HT2BR L362F^7.35 [7]): attenuated
Gq calcium flux agonist activity (5-HT2BR wild-type; 5-HT2BR wild-type): Gq partial agonists
Gq calcium flux Emax (5-HT2BR wild-type; 5-HT2BR wild-type): 82% and 79%
Gq calcium flux Emax (5-HT2BR L362A^7.35): 67%
β-arrestin recruitment agonism (5-HT2BR L362F^7.35 [8]): abolished

Cc1ccc2[nH]c3c(c2c1)CCNC3Cc1ccccc1Cl (centres unmarked) [2-ClBenzyl]
Gq calcium flux Emax (5-HT2BR wild-type; 5-HT2BR wild-type): 28%
EC50 (5-HT2BR wild-type; [18]): 35 nM

CC[C@@H](CO)NC(=O)[C@@H]1C=C2c3cccc4[nH]cc(c34)C[C@H]2N(C)C1 [methylergonovine]
Gq calcium flux agonism (5-HT2BR T140A^3.37 [9]): significantly diminished
EC50 (5-HT2BR WT): 1.2 nM
β-arrestin2 recruitment (5-HT2BR T140A^3.37 [10]): failed to recruit β-arrestin2
binding affinity (5-HT2BR T140A^3.37 [11]): significantly diminished
binding affinity (5-HT2BR A225G^5.46 [12]): did not substantially affect
EC50 (5-HT2BR T140S^3.37 [13]): 18 nM
Emax (5-HT2BR T140S^3.37 [13]; read-out: Gq calcium flux Emax): 64%
binding affinity (5-HT2BR T140V^3.37 [14]): significantly diminished
Gq calcium flux agonist activity (5-HT2BR wild-type; 5-HT2BR wild-type): Gq partial agonists
Gq calcium flux Emax (5-HT2BR wild-type; 5-HT2BR wild-type): 64%
EC50 (5-HT2BR wild-type; Gq calcium flux EC50, 5-HT2BR wild-type): 31 nM and 19 nM and 23 nM and 21 nM
binding affinity (5-HT2BR T140S^3.37 [15]): spared
Gq calcium flux agonism (5-HT2BR T140V^3.37 [4]): significantly diminished
binding affinity (5-HT2BR A225S^5.46 [16]): did not substantially affect
EC50 (5-HT2BR A225G^5.46 [5]; Gq calcium flux EC50, A225G^5.46 mutant): 12 nM
Emax (5-HT2BR A225G^5.46 [5]): 55%
EC50 (5-HT2BR A225S^5.46 [17]): 15 nM
Emax (5-HT2BR A225S^5.46 [17]; read-out: Gq calcium flux Emax): 58%

Cc1ccc2[nH]c3c(c2c1)CCNC3Cc1ccccc1 (centres unmarked) [unsubstituted Benzyl]
Gq calcium flux agonist activity (5-HT2BR wild-type; 5-HT2BR wild-type): no detectible Gq agonist activity

COc1ccc(CC2NCCc3c2[nH]c2ccccc32)c(Cl)c1OC (centres unmarked) [des-methyl LY266097 analog]
Gq calcium flux Emax (5-HT2BR wild-type; 5-HT2BR wild-type): 93%
EC50 (5-HT2BR wild-type; [18]): 20 nM
